Literature values as cited in patent US10716831B2, “Methods for inhibiting infectious peritonitis” (priority 2014, dated 2020).

What was measured:
[1] = in vivo
[2] = tested on: resistant bacterial strains; conditions: controlled clinical trials, orally or intravenously administered; overall
[3] = tested on: Peptostreptococcus (including Peptoniphilus, Finegoldia and Anaerococcus) and Fusobacterium; conditions: anaerobic genera
Pseudomonas aeruginosa = conditions: controlled clinical trials, orally or intravenously administered, maximum
[4] = tested on: bacteria of the B. fragilis group
[5] = tested on: strains of organisms from the susceptible genera
[6] = tested on: Klebsiella and Enterobacter spp.
[7] = tested on: Staphylococcus, Streptococcus, Neisseria, Escherichia, Proteus, Serratia, Salmonella, Shigella, Pseudomonas, Haemophilus and Vibrio; conditions: aerobic genera
[8] = tested on: polymorphonuclear leukocytes
[9] = intraperitoneal compared with intravenous administration; Tobudic et al 2012
infectious peritonitis = conditions: combination with imipenem; Pachón-Ibáñez et al 2011
[10] = not given; remark: listed apart in the source
[11] = tested on: cecal ligation and puncture; conditions: mice, subcutaneous injection; Gennari et al 1994
peritoneal macrophages = conditions: intraperitoneal; Selgas et al 1996
[12] = third and last day of treatment
monocytes = conditions: in vitro; Volk et al 1991
[13] = tested on: non-traumatic generalized abdominal sepsis; conditions: subcutaneous, with systemic antibiotics; Orozco et al 2006
bacterial peritonitis = conditions: mice, intraperitoneal for 5 days; Austin et al 1995
[14] = tested on: peritonitis induced by cecal ligation and puncture; conditions: rats, systemic; Toda et al 1994
fecal peritonitis = conditions: mice, prophylactic administration; Barsig et al 1996

In the case of `C[C@@H]1O[C@@H]1P(=O)(O)O` [Fosfomycin disodium], the solubility in water is given as “highly soluble in water”, the “pH of 5% solution” value is given as 9.0-10.5 and the “local or oral tolerability” value [1] is given as “locally irritant if un-neutralized”.

In the case of `C[C@@H]1O[C@@H]1P(=O)(O)O.NC(CO)(CO)CO` [Fosfomycin trometamol], the solubility in water is given as “highly soluble in water”, the “pH of 5% solution” value is given as 3.5-5.5 and the “local or oral tolerability” value [1] is given as “well tolerated when given orally”.

In the case of `C[C@@H]1O[C@@H]1P(=O)(O)O` [fosfomycin, [(2R,3S)-3-methyloxiran-2-yl]phosphonic acid], the “appearance of resistant bacterial strains” value [2] is listed as 3.0%, the antibacterial activity [3] is listed as “active” and the “appearance of resistant bacterial strains” value (Pseudomonas aeruginosa) is listed as 15%. For the same molecule, the antibacterial activity [4] was “not against”, the “tested strains showing synergistic effect” value ([5]; early studies, various antibiotic combinations) was 70-100% and the synergy rates ([5]; subsequent more extensive studies) was 36-74%. The antibacterial activity [6] was “active”, the antibacterial activity [7] was “highly active” and the “concentration in polymorphonuclear leukocytes relative to extracellular fluid” value [8] was “twice those of the extracellular fluid”. For the same molecule, the intraperitoneal levels [9] was “superior intraperitoneal levels”, the “synergy and in-vivo efficacy with imipenem” value (infectious peritonitis) was “showed synergy and high in-vivo efficacy” and the eosinophilia ([10]; Gobernado 2003) was 0.2%. The “transient rashes (allergy)” value ([10]; Gobernado 2003) was 0.3 % of cases, the “transiently raised liver enzymes” value ([10]; Gobernado 2003) was 0.3 % of cases and the “toxicity to mammalian cells and organs” value ([10]; fosfomycin disodium at intravenous doses of up to 0.5 g/kg/day in human patients) was “remarkably non-toxic”.

In the case of “GM-CSF: cytokine of the colony-stimulating factor family; mature human protein SEQ ID NO: 2”, the mortality [11] is given as “significantly reduced”, the peritoneal macrophage numbers (peritoneal macrophages) is given as “large increase” and the “peritoneal transport of water or solutes” value (peritoneal macrophages) is given as “did not affect”. The minor flu-like symptoms [12] was 2 of 8, the “loss of HLA-DR antigen expression to <20%” value (monocytes) was “reversed” and the “rate of infectious complications and length of hospitalization” value [13] was “reduced”. The survival (bacterial peritonitis) was “improved survival”.

B1: recombinant murine GM-CSF: recombinant murine GM-CSF used in rat and mouse peritonitis studies (protein, UniProt P01587 18-141, looked up)
Granulocyte-macrophage …: APTRSPITVTRPWKHVEAIKEALNLLDDMPVTLNEEVEVVSNEFSFKKLTCVQTRLKIFEQGLRGNFTKLKGALNMTASYYQTYCPPTPETDCETQVTTYADFIDSLKTFLTDIPFECKKPGQK
In the case of B1, the survival rate [14] is listed as “did not improve” and the “leukocyte numbers and protection” value (fecal peritonitis) is listed as “neither augmented leukocyte numbers nor protected mice”.
